Measured values: patent US10570179B2, “Substituted urea depsipeptide analogs as activators of the CLPP endopeptidase” (priority 2016, dated 2020)
Numbered stars: 1 amine (or outer) side, 2 acyl side, 3 side chain; on linkers, the order of the positions; unused ones are H or OH. Bridge positions count the residues as written; N and C are the ends. Square brackets hold non-standard residues; d marks the D form. Peptide text beside a SMILES is read from it. * marks the point of attachment. Phe(3-Me) = Cc1cccc(C[C@H](N)C(=O)O)c1; Pro(4S-Me) = C[C@@H]1CN[C@H](C(=O)O)C1; NH(4-Cl-2-F-phenyl) = Fc1cc(Cl)ccc1N*; Pro(4R-Me) = C[C@H]1CN[C@H](C(=O)O)C1; Propanoyl(3-NMe2) = CN(C)CCC(=O)*; X1 = O=C([C@@H]1CSCCN1[*:1])[*:2]; Hyp = O=C(O)[C@@H]1C[C@@H](O)CN1; NH(4-Me-phenyl) = Cc1ccc(N*)cc1; aThr = C[C@H](O)[C@H](N)C(=O)O; Pip = O=C(O)[C@@H]1CCCCN1; CO = O=C([*:1])[*:2]

Assays:
[1] = Plasma protein binding, rapid equilibrium dialysis; type: in vitro ADME, mouse
Protocol: This assay determines plasma protein binding of a drug/compound and free drug concentration in plasma using rapid equilibrium dialysis, which allow the aqueous component of plasma containing the free drug/compound through a dialysis membrane (MWCO˜8,000).
Solutions were prepared at 10 mM in DMSO. Dulbecco's phosphate buffered saline (DPBS; pH 7.4) was obtained from Invitrogen (Carlsbad, Calif.). Single-Use RED (rapid equilibrium dialysis) device was obtained from Thermo scientific (Rockford, Ill.). Human plasma was obtained from Innovative Research INC (Novi, Michigan, Ill).
Sample preparation for plasma protein binding was modified from Waters' method. (Waters et al. (2008) J. Pharm. Sci. 97(10): 4586-95). The Teflon base plate with the RED inserts (MWCO 8 K) were allowed to use without any pre-condition the membrane inserts. Human plasma was thawed and centrifuged at 1000 rpm for 2 min to remove any particulates. Each compound was prepared at 10 μM in human plasma. This was done by adding 1 μL, of drug solution (10 mM in DMSO) to 1000 μL, of human plasma (0.1% DMSO). Spiked plasma solutions (300 μL) were placed into the sample chamber (indicated by the red ring) and 500 μL, of DPBS into the adjacent chamber. The plate was sealed and incubated at 37° C. on an orbital shaker (100 rpm) for 4 hours. After incubation, the seal was removed from the RED plate and the volume of the insert confirmed—little to no volume change occurred. Aliquots (50 μL) were removed from each side of the insert and dispensed into a 96-well deep plate. An equal volume of blank plasma or DPBS was added to the required wells to create analytically identical sample matrices (matrix matching). To each sample 200 μL, of ACN containing 4 μg/mL warfarin IS was added. All of the plates were sealed and mixed well at 600 rpm for 10 min and were centrifuged at 4000 rpm for 20 min. The supernatants (120 μL) were transferred to analytical plates for analysis by LCMS. Conditions for Waters ACQUITY-UPLC-MS-UV system were described separately. The test compound concentrations were quantified in both buffer and plasma chambers via peak areas relative to the internal standard. The percentage of the test compound bound to plasma was calculated on following equations: % Free=(Concentration buffer chamber/concentration plasma chamber)×100% and % Bound=100%-% Free.

Plasma stability assay = type: in vitro ADME, human
Protocol: The plasma stability property of early drug discovery compounds can influence the in vivo efficacy of the test compounds/drugs. Human and/or mouse plasma degradation is determined using multiple time points to monitor the rate of disappearance of the parent compound during incubation.
Sample preparation for plasma stability was modified from Di et al. (2005) Int. J. Pharm. 297(1-2): 110-119. A set of incubation times of 0, 3, 24, and 48 hour were used. DMSO stock solutions of test compounds were prepared at 10 mM concentration. 1.8 μL of each test compound was each added directly to 1.8 mL of human/mouse plasma to get the final concentration of 10 μM. This compound/matrix was mixed and 70 μL was transferred to 8 time points plates (each in triplicate wells). For the Time 0 plate, 210 μL of cold acetonitrile with internal standard (4 μg/mL warfarin) was added to each well and no incubation needed. For other seven time points' plate, the plate was incubated at 37° C. for required time, followed by quenching of the reaction by adding 210 μL of cold acetonitrile with internal standard (4 μg/ml warfarin) to each well. All of the plates were sealed and mixed well at 600 rpm for 10 min and were centrifuged at 4000 rpm for 20 min. The supernatants (120 μL) were transferred to analytical plates for analysis by LCMS. Conditions for Waters ACQUITY-UPLC-MS-UV system was described separately. The plasma stability was evaluated via the half-life from least-squares fit of the multiple time points based on first-order kinetics.

[2] = plasma binding, % Bound, mouse plasma
[3] = plasma stability half-life, human plasma, 37° C.

Cc1ccc(NC(=O)N[C@@H](Cc2cccc(C)c2)C(=O)N[C@@H]2C(=O)N3C[C@H](O)C[C@H]3C(=O)N3CCSC[C@H]3C(=O)N[C@@H](C)C(=O)N3C[C@H](C)C[C@H]3C(=O)O[C@H]2C)cc1 [Compound 42, (S)—N-((6AS,8R,12S,13S,15AS,17R,21S,23AR)-8-HYDROXY-13,17,21-TRIMETHYL-6,11,15,20,23-PENTAOXOOCTADECAHYDRO-6H,11H,15H-DIPYRROLO[2,1-C:2′,1′-L][1,4]THIAZINO[3,4-I][1]OXA[4,7,10,13]TETRAAZACYCLOHEXADECIN-12-YL)-3-(M-TOLYL)-2-(3-(P-TOLYL)UREIDO)PROPANAMIDE] ({NH(4-Me-phenyl)-CO}-[Phe(3-Me)][aThr][Hyp][X1]A[Pro(4R-Me)]; ester 2-C)
Mouse [1, 2]: 97.4 ± 7.4%
Human (Plasma stability assay; [3]): >50 h

Cc1ccc(NC(=O)N[C@@H](Cc2cccc(C)c2)C(=O)N[C@@H]2C(=O)N3CCC[C@H]3C(=O)N3CCCC[C@H]3C(=O)N[C@@H](C)C(=O)N3C[C@@H](C)C[C@H]3C(=O)O[C@H]2C)cc1 [Compound 45, (S)-3-(M-TOLYL)-2-(3-(P-TOLYL)UREIDO)-N-((2S,6S,8AS,14AS,20S,21S,23AS)-2,6,21-TRIMETHYL-5,8,14,19,23-PENTAOXOOCTADECAHYDRO-1H,5H,14H,19H-PYRIDO[2,1-I]DIPYRROLO[2,1-C:2′,1′-L][1]OXA[4,7,10,13]TETRAAZACYCLOHEXADECIN-20-YL)PROPANAMIDE] ({NH(4-Me-phenyl)-CO}-[Phe(3-Me)][aThr]P[Pip]A[Pro(4S-Me)]; ester 2-C)
Mouse [1, 2]: 92.1 ± 1.3%
Human (Plasma stability assay; [3]): >50 h

Cc1cccc(C[C@H](NC(=O)Nc2ccc(Cl)cc2F)C(=O)N[C@@H]2C(=O)N3C[C@H](OC(=O)CCN(C)C)C[C@H]3C(=O)N3CCCC[C@H]3C(=O)N[C@@H](C)C(=O)N3C[C@H](C)C[C@H]3C(=O)O[C@H]2C)c1 [Compound 46, (2R,6S,8AS,14AS,16R,20S,21S,23AS)-20-((S)-2-(3-(4-CHLORO-2-FLUOROPHENYL)UREIDO)-3-(M-TOLYL)PROPANAMIDO)-2,6,21-TRIMETHYL-5,8,14,19,23-PENTAOXOOCTADECAHYDRO-1H,5H,14H,19H-PYRIDO[2,1-I]DIPYRROLO[2,1-C:2′,1′-L][1]OXA[4,7,10,13]TETRAAZACYCLOHEXADECIN-16-YL 3-(DIMETHYLAMINO)PROPANOATE] ({NH(4-Cl-2-F-phenyl)-CO}-[Phe(3-Me)][aThr][Hyp](Propanoyl(3-NMe2))[Pip]A[Pro(4R-Me)]; ester 2-C)
Mouse ([1]; mouse, 4 h, 10 μM, pH 7.4): 93.0 ± 0.8%
Human (Plasma stability assay; human, 10 μM): 0.57 h

Cc1ccc(NC(=O)N[C@@H](Cc2cccc(C)c2)C(=O)N[C@H]2COC(=O)[C@@H]3CCCN3C(=O)[C@H](C)NC(=O)[C@@H]3CCCCN3C(=O)[C@@H]3C[C@@H](O)CN3C2=O)cc1 [Compound 49, (S)—N-((6S,8AS,14AS,16R,20S,23AS)-16-HYDROXY-6-METHYL-5,8,14,19,23-PENTAOXOOCTADECAHYDRO-1H,5H,14H,19H-PYRIDO[2,1-I]DIPYRROLO[2,1-C:2′,1′-L][1]OXA[4,7,10,13]TETRAAZACYCLOHEXADECIN-20-YL)-3-(M-TOLYL)-2-(3-(P-TOLYL)UREIDO)PROPANAMIDE]
Mouse [1, 2]: 99.4 ± 9.4%
Human (Plasma stability assay; [3]): 29.79 h
